From US7528250B2, “Chroman derivatives and uses thereof” (Roche Palo Alto LLC, priority 2004, dated 2009)
Where a name gives a salt, the structure may show the parent alone.

Assays:
[1] = biological target: T1, recombinant human 5-HT6 receptor (Homo sapiens, UniProt P50406); experiment: Radioligand binding, [3H]LSD competition, membranes of HEK293 cells expressing 5-HT6; conditions: HEK293 cell membranes, pH 7.4, 37° C., 75 min, read-out: pKi for 5-HT6 (converted)
T1 construct: expressed in transfected cells; membranes
T1 sequence (P50406 whole entry): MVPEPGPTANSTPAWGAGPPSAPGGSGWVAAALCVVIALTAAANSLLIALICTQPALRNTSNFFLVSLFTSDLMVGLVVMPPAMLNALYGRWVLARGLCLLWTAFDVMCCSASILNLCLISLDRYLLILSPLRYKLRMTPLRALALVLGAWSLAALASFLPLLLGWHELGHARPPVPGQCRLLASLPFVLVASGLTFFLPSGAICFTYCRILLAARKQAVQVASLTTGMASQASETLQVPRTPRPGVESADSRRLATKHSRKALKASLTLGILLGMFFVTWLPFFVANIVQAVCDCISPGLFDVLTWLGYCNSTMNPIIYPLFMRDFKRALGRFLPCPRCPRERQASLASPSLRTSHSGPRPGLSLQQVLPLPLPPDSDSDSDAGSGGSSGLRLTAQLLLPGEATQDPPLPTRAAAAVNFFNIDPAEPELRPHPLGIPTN
Procedure: (§1) The binding activity of compounds of this invention in vitro was determined as follows. Duplicate determinations of 5-HT6 ligand affinity were made by competing for binding of [^3H]LSD in cell membranes derived from HEK293 cells stably expressing recombinant human 5-HT6 receptor. Duplicate determinations of 5-HT2A ligand affinity were made by competing for binding of [^3H]Ketanserin (3-(2-(4-(4-fluorobenzoyl)piperidinol)ethyl)-2,4(1H,3H)-quinazolinedione) in cell membranes derived from CHO-K1 cells stably expressing recombinant human 5-HT2A receptor. Membranes were prepared from HEK 293 cell lines by the method described by Monsma et al., Molecular Pharmacology, Vol. 43 pp. 320-327 (1993), and from CHO-K1 cell lines as described by Bonhaus et al., Br J Pharmacol. June; 115(4):622-8 (1995).
(§2) For estimation of affinity at the 5-HT6 receptor, all determinations were made in assay buffer containing 50 mM Tris-HCl, 10 mM MgSO4, 0.5 mM EDTA, 1 mM ascorbic acid, pH 7.4 at 37° C., in a 250 microliter reaction volume. […]
(§3) Assay tubes containing [^3H] […] LSD or [^3H]Ketanserin were determined as radioactive counts per minute using Packard TopCount.
(§4) Displacement of [^3H]LSD or [^3H]Ketanserin from the binding sites was quantified by fitting concentration-binding data to a 4-parameter logistic equation: […]

[2] = biological target: T2, recombinant human 5-HT2A receptor (Homo sapiens, UniProt P28223); experiment: Radioligand binding, [3H]Ketanserin competition, membranes of CHO-K1 cells expressing 5-HT2A; conditions: CHO-K1 cell membranes, pH 7.4, 32° C., 60 min, read-out: pKi for 5-HT2A (converted)
T2 construct: expressed in transfected cells; membranes
T2 sequence (P28223 whole entry): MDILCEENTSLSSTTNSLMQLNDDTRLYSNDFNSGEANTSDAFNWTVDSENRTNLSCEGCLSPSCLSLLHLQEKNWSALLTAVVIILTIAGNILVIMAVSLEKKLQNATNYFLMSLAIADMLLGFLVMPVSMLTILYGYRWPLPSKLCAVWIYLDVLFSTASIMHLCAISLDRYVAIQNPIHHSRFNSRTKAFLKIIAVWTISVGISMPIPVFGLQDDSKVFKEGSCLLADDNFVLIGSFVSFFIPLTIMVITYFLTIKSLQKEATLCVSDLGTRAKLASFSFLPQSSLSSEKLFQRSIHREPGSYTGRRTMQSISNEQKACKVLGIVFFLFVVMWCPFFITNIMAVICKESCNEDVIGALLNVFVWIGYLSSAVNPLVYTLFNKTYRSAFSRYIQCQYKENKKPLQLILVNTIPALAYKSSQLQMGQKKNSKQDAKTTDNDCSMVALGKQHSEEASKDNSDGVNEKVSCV
Procedure: as §1, §2, §3, §4

`O=S(=O)(c1ccccc1)c1ccc2c(c1)OCCC2N1CCNCC1` (stereo not drawn) [Compound 1, 1-(7-Benzenesulfonyl-chroman-4-yl)-piperazine] showed a Ki [1] of ~0.417 nM and a Ki [2] of ~46.8 nM.

In the case of `O=S(=O)(c1ccccc1)c1ccc2c(c1)OCCC2N1CCNCC1` (stereo not drawn) (as salt: HCl) [Compound 1, 1-(7-Benzenesulfonyl-chroman-4-yl)-piperazine], the melting point is reported as 243 to 249 °C.
